# Experimental data published in US8435990B2, “Dihydropyrimidone amides as P2X7 modulators” (Roche Palo Alto LLC, priority 2009, dated 2013).
# Molecular target: T1, human P2X7 (Homo sapiens, UniProt Q99572)
# T1 construct: 1321N1 cells stably expressing the full length human P2X7 gene (1321N1-hP2X7)
# T1 sequence (Q99572 1-595): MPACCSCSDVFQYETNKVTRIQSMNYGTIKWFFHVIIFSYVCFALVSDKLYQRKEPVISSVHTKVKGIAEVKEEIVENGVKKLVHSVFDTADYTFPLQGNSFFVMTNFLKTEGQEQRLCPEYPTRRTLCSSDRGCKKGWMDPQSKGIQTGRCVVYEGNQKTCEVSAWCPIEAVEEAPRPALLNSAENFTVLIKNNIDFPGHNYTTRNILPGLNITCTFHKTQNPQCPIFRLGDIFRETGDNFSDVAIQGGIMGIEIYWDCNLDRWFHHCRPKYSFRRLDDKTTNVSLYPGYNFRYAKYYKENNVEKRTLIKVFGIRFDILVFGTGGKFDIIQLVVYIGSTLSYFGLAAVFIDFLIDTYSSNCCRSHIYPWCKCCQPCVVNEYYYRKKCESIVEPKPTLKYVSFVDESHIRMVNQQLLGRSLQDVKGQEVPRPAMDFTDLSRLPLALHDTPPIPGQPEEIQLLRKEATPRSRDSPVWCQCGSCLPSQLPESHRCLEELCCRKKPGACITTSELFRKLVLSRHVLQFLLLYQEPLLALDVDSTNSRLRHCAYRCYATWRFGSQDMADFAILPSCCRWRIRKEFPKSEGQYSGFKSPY
# Assay: P2X7 modulator pIC50 of Table 1 (assay not given; Intracellular Calcium Flux (FLIPR) Assay assumed)
# Type: cell-based
# Protocol: Intracellular Calcium Flux (FLIPR) Assay
# Stock solutions of compounds were prepared from powders as a 10 mM DMSO stock solution. These solutions were stored at RT during the two week period of these experiments to prevent freeze-thaw of the DMSO stocks. The DMSO stocks were added to the appropriate assay buffer at a concentration of 10 μM, and then diluted serially to the final concentrations that were tested. No observable precipitate was formed at any time during this process. The aqueous solutions of compounds as well as ATP (Sigma A7699) and BzATP (Sigma B6396) were prepared fresh for each day of experiment.
# 1321N1 cells stably expressing the full length human P2X7 gene (1321N1-hP2X7) and HEK293 cells stably expressing the full length rat P2X7 gene (HEK293-rP2X7) were obtained from the Roche Cell Culture Facility. 1321N1-hP2X7 cells were grown in Dulbecco's Modified Eagle's Medium (DMEM) high glucose supplemented with 10% FBS and 250 μg/mL G418. HEK293-rP2X7 cells were grown in DMEM/F-12 supplemented with 10% FBS, 1 mM CaCl2, 2 mM MgCl2, 2 mM L-Glutamine and 500 μg/ml G418. Cells were split such that they never became >70% confluent.
# On the day prior to the experiment, 1321N1-hP2X7 or HEK293-rP2X7 cells were released into suspension with calcium-free PBS+Versene and washed by centrifugation with calcium-free PBS to remove the Versene. Cells were resuspended in growth medium at a density of 2.5×10^5 cells/mL and seeded into black walled, clear bottom 96 well plates (50,000 cells/well) approximately 18 hr prior to intracellular calcium flux experiments.
# On the day of the experiment, plates were washed with FLIPR buffer (calcium- and magnesium-free Hank's Balanced Salt Solution (HBSS) supplemented with 10 mM Hepes, 2.5 mM probenecid and 2 mM calcium chloride) using a BIO-TEK 96 channel plate washer and incubated with […] fluo-3 dye at 37° C. for one hr. The dye was then removed by plate washing and the cells were allowed to equilibrate for 20 min at room temperature with antagonist or vehicle (FLIPR buffer). Agonist (100 μM BzATP final concentration for hP2X7; 5μM BzATP final concentration or rP2X7) was added online with the FLIPR and fluorescence measurements made at 1 sec intervals for 60 sec followed by 3 sec intervals for a further 4 min (5 min total). A final addition of 5 μM ionomycin was made and the maximal BzATP-evoked fluorescence normalized to the maximal ionomycin-evoked fluorescence.
row,SMILES,IC50
1,"COc1cc(C)c(NC(=O)C2=CNC(=O)NC2c2ccc(F)cc2)cc1OC (centres unmarked) [Compound 1, 4-(4-Fluoro-phenyl)-2-oxo-1,2,3,4-tetrahydro-pyrimidine-5-carboxylic acid (4,5-dimethoxy-2-methyl-phenyl)-amide]",34.7 nM
2,"COc1cc(C)c(NC(=O)C2=CN(C)C(=O)NC2c2ccc(F)cc2)cc1OC (centres unmarked) [Compound 2, 4-(4-Fluoro-phenyl)-1-methyl-2-oxo-1,2,3,4-tetrahydro-pyrimidine-5-carboxylic acid (4,5-dimethoxy-2-methyl-phenyl)-amide]",41.2 nM
3,"Cc1cc(-c2ccc(C)c(NC(=O)C3=CNC(=O)N[C@@H]3c3ccc(F)cc3)c2)n[nH]1 [Compound 3, (R)-4-(4-Fluoro-phenyl)-2-oxo-1,2,3,4-tetrahydro-pyrimidine-5-carboxylic acid [2-methyl-5-(5-methyl-1H-pyrazol-3-yl)-phenyl]-amide]",173 nM
4,"COc1cc(C)c(NC(=O)C2=CNC(=O)N[C@H]2c2ccc(F)cc2)cc1OC [Compound 4, (S)-4-(4-Fluoro-phenyl)-2-oxo-1,2,3,4-tetrahydro-pyrimidine-5-carboxylic acid (4,5-dimethoxy-2-methyl-phenyl)-amide]",59.8 nM
5,"Cc1cc(-c2ccc(C)c(NC(=O)C3=CNC(=O)N[C@H]3c3ccc(F)cc3)c2)n[nH]1 [Compound 5, (S)-4-(4-Fluoro-phenyl)-2-oxo-1,2,3,4-tetrahydro-pyrimidine-5-carboxylic acid [2-methyl-5-(5-methyl-1H-pyrazol-3-yl)-phenyl]-amide]",19.7 nM
6,"COc1cc(C)c(NC(=O)C2=CN(C)C(=O)N[C@H]2c2ccc(F)cc2)cc1OC [Compound 6, (S)-4-(4-Fluoro-phenyl)-1-methyl-2-oxo-1,2,3,4-tetrahydro-pyrimidine-5-carboxylic acid (4,5-dimethoxy-2-methyl-phenyl)-amide]",35.1 nM
7,"Cc1cc(-c2ccc(C)c(NC(=O)C3=CN(C)C(=O)N[C@H]3c3ccc(F)cc3)c2)n[nH]1 [Compound 7, (S)-4-(4-Fluoro-phenyl)-1-methyl-2-oxo-1,2,3,4-tetrahydro-pyrimidine-5-carboxylic acid [2-methyl-5-(5-methyl-1H-pyrazol-3-yl)-phenyl]-amide]",35.1 nM
8,"Cc1cc(Cl)c(OCCO)cc1NC(=O)C1=CN(C)C(=O)N[C@H]1c1ccc(F)cc1 [Compound 8, (S)-4-(4-Fluoro-phenyl)-1-methyl-2-oxo-1,2,3,4-tetrahydro-pyrimidine-5-carboxylic acid [4-chloro-5-(2-hydroxy-ethoxy)-2-methyl-phenyl]-amide]",22.9 nM
9,"COc1cc(C)c(NC(=O)C2=CN(C)C(=O)N(C)C2c2ccc(F)cc2)cc1OC (centres unmarked) [Compound 9, 4-(4-Fluoro-phenyl)-1,3-dimethyl-2-oxo-1,2,3,4-tetrahydro-pyrimidine-5-carboxylic acid (4,5-dimethoxy-2-methyl-phenyl)-amide]",196 nM
10,"COc1cc(C)c(NC(=O)C2=CNC(=O)N[C@@H]2c2ccc(F)cc2)cc1OC [Compound 10, (R)-4-(4-Fluoro-phenyl)-2-oxo-1,2,3,4-tetrahydro-pyrimidine-5-carboxylic acid (4,5-dimethoxy-2-methyl-phenyl)-amide]",359 nM
11,"Cc1ccc2ncccc2c1NC(=O)C1=CN(C)C(=O)N[C@H]1c1ccc(F)cc1 [Compound 11, (S)-4-(4-Fluoro-phenyl)-1-methyl-2-oxo-1,2,3,4-tetrahydro-pyrimidine-5-carboxylic acid (6-methyl-quinolin-5-yl)-amide]",120 nM
12,"COc1cc(C)c(NC(=O)C2=CN(CCO)C(=O)NC2c2ccc(F)cc2)cc1OC (centres unmarked) [Compound 12, 4-(4-Fluoro-phenyl)-1-(2-hydroxy-ethyl)-2-oxo-1,2,3,4-tetrahydro-pyrimidine-5-carboxylic acid (4,5-dimethoxy-2-methyl-phenyl)-amide]",111 nM
13,"COc1cc(C)c(NC(=O)C2=CNC(=O)N(C)C2c2ccc(F)cc2)cc1OC (centres unmarked) [Compound 13, 4-(4-Fluoro-phenyl)-3-methyl-2-oxo-1,2,3,4-tetrahydro-pyrimidine-5-carboxylic acid (4,5-dimethoxy-2-methyl-phenyl)-amide]",85.1 nM
14,"Cc1cc(-c2ccc(C)c(NC(=O)C3=CN(C)C(=O)NC3c3cccc(F)c3)c2)n[nH]1 (centres unmarked) [Compound 14, 4-(3-Fluoro-phenyl)-1-methyl-2-oxo-1,2,3,4-tetrahydro-pyrimidine-5-carboxylic acid [2-methyl-5-(5-methyl-1H-pyrazol-3-yl)-phenyl]-amide]",57.9 nM
15,"Cc1cnn(-c2ccc(C)c(NC(=O)C3=CN(C)C(=O)N[C@H]3c3ccc(F)cc3)c2)c1 [Compound 15, (S)-4-(4-Fluoro-phenyl)-1-methyl-2-oxo-1,2,3,4-tetrahydro-pyrimidine-5-carboxylic acid [2-methyl-5-(4-methyl-pyrazol-1-yl)-phenyl]-amide]",14.1 nM
16,"Cc1cc(F)c(OCCO)cc1NC(=O)C1=CN(C)C(=O)N[C@H]1c1ccc(F)cc1 [Compound 16, (S)-4-(4-Fluoro-phenyl)-1-methyl-2-oxo-1,2,3,4-tetrahydro-pyrimidine-5-carboxylic acid [4-fluoro-5-(2-hydroxy-ethoxy)-2-methyl-phenyl]-amide]",9.23 nM
17,"CCN1C=C(C(=O)Nc2cc(OCCO)c(Cl)cc2C)[C@H](c2ccc(F)cc2)NC1=O [Compound 17, (S)-1-Ethyl-4-(4-fluoro-phenyl)-2-oxo-1,2,3,4-tetrahydro-pyrimidine-5-carboxylic acid [4-chloro-5-(2-hydroxy-ethoxy)-2-methyl-phenyl]-amide]",24 nM
18,"Cc1ccc(-c2nnc(C)n2C)cc1NC(=O)C1=CN(C)C(=O)N[C@H]1c1ccc(F)cc1 [Compound 18, (S)-4-(4-Fluoro-phenyl)-1-methyl-2-oxo-1,2,3,4-tetrahydro-pyrimidine-5-carboxylic acid [5-(4,5-dimethyl-4H-[1,2,4]triazol-3-yl)-2-methyl-phenyl]-amide]",22.1 nM
19,"Cc1ccc(-c2cc(C)n(C[C@@H](O)CO)n2)cc1NC(=O)C1=CN(C)C(=O)N[C@H]1c1ccc(F)cc1 [Compound 19, (S)-4-(4-Fluoro-phenyl)-1-methyl-2-oxo-1,2,3,4-tetrahydropyrimidine-5-carboxylic acid {5-[1-((R)-2,3-dihydroxy-propyl)-5-methyl-1H-pyrazol-3-yl]-2-methyl-phenyl}-amide]",22.9 nM
20,"Cc1ccc2c(NC(=O)C3=CN(C)C(=O)N[C@H]3c3ccc(F)cc3)c(C)ccc2n1 [Compound 21, (S)-4-(4-Fluoro-phenyl)-1-methyl-2-oxo-1,2,3,4-tetrahydro-pyrimidine-5-carboxylic acid (2,6-dimethyl-quinolin-5-yl)-amide]",88.1 nM
21,"Cc1ccc(-c2ccnn(C)c2=O)cc1NC(=O)C1=CN(C)C(=O)N[C@H]1c1ccc(F)cc1 [Compound 22, (S)-4-(4-Fluoro-phenyl)-1-methyl-2-oxo-1,2,3,4-tetrahydro-pyrimidine-5-carboxylic acid [2-methyl-5-(2-methyl-3-oxo-2,3-dihydro-pyridazin-4-yl)-phenyl]-amide]",11.5 nM
22,"Cc1c(NC(=O)C2=CN(C)C(=O)N[C@H]2c2ccc(F)cc2)cccc1-c1ccn[nH]1 [Compound 23, (S)-4-(4-Fluoro-phenyl)-1-methyl-2-oxo-1,2,3,4-tetrahydro-pyrimidine-5-carboxylic acid [2-methyl-3-(2H-pyrazol-3-yl)-phenyl]-amide]",184 nM
23,"COC[C@H](O)Cn1nc(-c2ccc(C)c(NC(=O)C3=CN(C)C(=O)N[C@H]3c3ccc(F)cc3)c2)cc1C [Compound 24, (S)-4-(4-Fluoro-phenyl)-1-methyl-2-oxo-1,2,3,4-tetrahydro-pyrimidine-5-carboxylic acid {5-[1-((R)-2-hydroxy-3-methoxy-propyl)-5-methyl-1H-pyrazol-3-yl]-2-methyl-phenyl}-amide]",50.7 nM
